Test results from ChEMBL document CHEMBL3875230, “Structure-Guided Design of Novel, Potent, and Selective Macrocyclic Plasma Kallikrein Inhibitors” (ACS Med Chem Lett, 2017).

What was measured:
Plasma kallikrein = Plasma kallikrein (Homo sapiens, UniProt P03952); test: Inhibition of human plasma kallikrein using D-Pro-Phe-Arg-pNA as substrate preincubated for 30 mins followed by substrate addition; type: cell-free
[1] = Apparent permeability across MDCK cells at 1 uM; type: ADME, cell-based, Canis lupus familiaris; details: dog
Coagulation factor X = Coagulation factor X (Homo sapiens, UniProt P00742); test: Inhibition of factor 10a (unknown origin) using N-Z-D-Arg-Gly-Arg-pNA as substrate preincubated for 30 mins followed by substrate addition
Coagulation factor XII = target: T1, Coagulation factor XII (Homo sapiens, UniProt P00748); test: Inhibition of factor 12a (unknown origin) using D-Pro-Phe-Arg-pNA as substrate preincubated for 30 mins followed by substrate addition
T1 sequence (P00748 whole entry): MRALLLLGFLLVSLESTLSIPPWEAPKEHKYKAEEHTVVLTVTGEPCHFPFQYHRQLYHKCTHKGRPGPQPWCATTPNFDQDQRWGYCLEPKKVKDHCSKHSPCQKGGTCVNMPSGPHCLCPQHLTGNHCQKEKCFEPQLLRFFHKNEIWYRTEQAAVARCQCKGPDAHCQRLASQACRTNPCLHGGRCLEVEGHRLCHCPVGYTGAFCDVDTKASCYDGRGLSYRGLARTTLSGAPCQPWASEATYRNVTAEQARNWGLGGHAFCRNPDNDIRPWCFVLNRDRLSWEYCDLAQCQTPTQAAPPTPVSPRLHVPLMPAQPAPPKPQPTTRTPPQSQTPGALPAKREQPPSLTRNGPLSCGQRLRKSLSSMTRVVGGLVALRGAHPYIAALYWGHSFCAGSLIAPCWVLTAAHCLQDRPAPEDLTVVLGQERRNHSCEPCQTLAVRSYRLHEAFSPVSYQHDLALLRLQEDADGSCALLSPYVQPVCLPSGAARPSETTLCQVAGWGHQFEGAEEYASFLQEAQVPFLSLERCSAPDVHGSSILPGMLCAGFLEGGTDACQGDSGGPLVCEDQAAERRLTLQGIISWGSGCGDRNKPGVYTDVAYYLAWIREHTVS

Coagulation factor XI = Coagulation factor XI (Homo sapiens, UniProt P03951); test: Inhibition of factor 11a (unknown origin) using S-2366 as substrate incubated for 30 mins followed by substrate addition
Plasminogen = Plasminogen (Homo sapiens, UniProt P00747); test: Inhibition of Lys-plasmin (unknown origin) using Tosyl-Gly-Pro-Lys-4-nitranilide as substrate preincubated for 30 mins followed by substrate addition
[2] = Inhibition of bovine trypsin using S-2765 as substrate incubated for 30 mins followed by substrate addition; parameters: species or system Bos taurus
[3] = Half life in rat liver microsomes in presence of NADPH by LC/MS/MS analysis; type: ADME
Prothrombin = Prothrombin (Homo sapiens, UniProt P00734); test: Inhibition of alpha-thrombin (unknown origin) using D-Phe-Pip-Arg-pNA as substrate preincubated for 30 mins followed by substrate addition
[4] = target: Tissue-type plasminogen activator (Homo sapiens, UniProt P00750); test: Inhibition of tPA (unknown origin) using Methylsulfonyl-D-Phe-Gly-Arg-pNA as substrate preincubated for 30 mins followed by substrate addition
[5] = Cmax in Sprague-Dawley rat plasma at 20 mg/kg administered via oral gavage measured up to 24 hrs by LC-MS/MS analysis; type: ADME, organism-based; parameters: dose 20 mg/kg, route oral
[6] = Oral bioavailability in Sprague-Dawley rat plasma at 20 mg/kg administered via gavage measured up to 24 hrs by LC-MS/MS analysis; type: ADME, organism-based

Coagulation factor X, sequence (P00742 41-179 limits assumed): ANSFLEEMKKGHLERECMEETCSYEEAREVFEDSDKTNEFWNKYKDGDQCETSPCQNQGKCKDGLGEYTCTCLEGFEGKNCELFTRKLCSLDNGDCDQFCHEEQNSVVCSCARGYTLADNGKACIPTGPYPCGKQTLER
Coagulation factor X, sequence (P00742 235-488 limits assumed): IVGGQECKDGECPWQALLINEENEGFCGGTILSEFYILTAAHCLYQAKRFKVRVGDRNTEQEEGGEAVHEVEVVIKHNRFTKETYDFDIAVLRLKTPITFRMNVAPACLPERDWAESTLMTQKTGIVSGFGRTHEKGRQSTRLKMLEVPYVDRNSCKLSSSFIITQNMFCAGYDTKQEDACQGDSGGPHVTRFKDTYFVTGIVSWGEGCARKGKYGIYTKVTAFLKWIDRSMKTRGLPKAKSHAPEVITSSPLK
Tissue-type plasminogen activator, sequence (P00750 whole entry): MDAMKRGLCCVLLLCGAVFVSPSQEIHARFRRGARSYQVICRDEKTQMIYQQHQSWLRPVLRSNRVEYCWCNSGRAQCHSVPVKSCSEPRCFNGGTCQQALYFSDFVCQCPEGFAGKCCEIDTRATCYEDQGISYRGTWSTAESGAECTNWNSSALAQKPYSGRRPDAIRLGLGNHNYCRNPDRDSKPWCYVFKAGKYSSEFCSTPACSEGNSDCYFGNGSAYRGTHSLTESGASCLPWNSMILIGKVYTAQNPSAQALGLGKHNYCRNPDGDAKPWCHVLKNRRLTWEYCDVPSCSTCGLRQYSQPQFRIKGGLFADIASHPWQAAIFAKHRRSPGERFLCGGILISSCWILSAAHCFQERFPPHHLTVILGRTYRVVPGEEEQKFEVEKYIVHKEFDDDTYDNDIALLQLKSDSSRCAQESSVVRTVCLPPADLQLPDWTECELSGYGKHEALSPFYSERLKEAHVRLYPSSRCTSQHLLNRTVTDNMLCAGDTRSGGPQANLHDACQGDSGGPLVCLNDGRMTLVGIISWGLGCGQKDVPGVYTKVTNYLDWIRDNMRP
Coagulation factor XI, sequence (P03951 19-387 limits assumed): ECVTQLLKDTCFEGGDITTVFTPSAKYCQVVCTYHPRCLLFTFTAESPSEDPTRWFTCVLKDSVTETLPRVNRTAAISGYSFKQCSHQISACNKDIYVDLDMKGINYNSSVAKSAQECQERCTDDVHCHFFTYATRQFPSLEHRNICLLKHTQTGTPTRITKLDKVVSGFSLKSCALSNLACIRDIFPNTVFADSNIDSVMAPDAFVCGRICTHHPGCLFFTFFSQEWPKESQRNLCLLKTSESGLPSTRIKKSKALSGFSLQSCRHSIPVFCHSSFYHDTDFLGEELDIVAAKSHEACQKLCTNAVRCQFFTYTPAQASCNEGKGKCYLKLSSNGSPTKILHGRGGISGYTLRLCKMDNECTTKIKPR
Coagulation factor XI, sequence (P03951 388-625 limits assumed): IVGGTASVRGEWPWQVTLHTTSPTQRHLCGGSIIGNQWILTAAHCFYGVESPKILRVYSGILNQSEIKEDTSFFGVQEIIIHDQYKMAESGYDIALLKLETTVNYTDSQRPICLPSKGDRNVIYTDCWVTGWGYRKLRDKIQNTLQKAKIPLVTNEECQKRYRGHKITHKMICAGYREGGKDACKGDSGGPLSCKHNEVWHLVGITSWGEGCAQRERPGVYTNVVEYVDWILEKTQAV
Plasma kallikrein, sequence (P03952 20-390 limits assumed): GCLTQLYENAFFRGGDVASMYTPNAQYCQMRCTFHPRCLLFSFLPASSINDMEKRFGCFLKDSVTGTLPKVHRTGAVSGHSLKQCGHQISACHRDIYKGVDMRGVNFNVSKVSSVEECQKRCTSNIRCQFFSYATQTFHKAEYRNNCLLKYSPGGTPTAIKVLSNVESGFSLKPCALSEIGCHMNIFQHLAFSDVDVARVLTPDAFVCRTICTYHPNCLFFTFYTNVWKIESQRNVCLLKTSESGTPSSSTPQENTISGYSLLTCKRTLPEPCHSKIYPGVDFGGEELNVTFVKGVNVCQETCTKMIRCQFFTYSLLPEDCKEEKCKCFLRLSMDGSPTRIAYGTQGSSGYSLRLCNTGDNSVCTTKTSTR
Plasma kallikrein, sequence (P03952 391-638 limits assumed): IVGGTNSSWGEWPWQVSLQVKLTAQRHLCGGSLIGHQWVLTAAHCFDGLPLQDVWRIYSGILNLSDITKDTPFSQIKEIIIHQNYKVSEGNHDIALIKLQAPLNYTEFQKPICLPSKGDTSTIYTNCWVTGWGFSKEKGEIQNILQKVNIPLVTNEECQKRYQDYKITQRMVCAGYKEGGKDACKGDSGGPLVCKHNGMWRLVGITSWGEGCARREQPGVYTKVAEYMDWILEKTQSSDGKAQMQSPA
Plasminogen, sequence (P00747 97-580 limits assumed): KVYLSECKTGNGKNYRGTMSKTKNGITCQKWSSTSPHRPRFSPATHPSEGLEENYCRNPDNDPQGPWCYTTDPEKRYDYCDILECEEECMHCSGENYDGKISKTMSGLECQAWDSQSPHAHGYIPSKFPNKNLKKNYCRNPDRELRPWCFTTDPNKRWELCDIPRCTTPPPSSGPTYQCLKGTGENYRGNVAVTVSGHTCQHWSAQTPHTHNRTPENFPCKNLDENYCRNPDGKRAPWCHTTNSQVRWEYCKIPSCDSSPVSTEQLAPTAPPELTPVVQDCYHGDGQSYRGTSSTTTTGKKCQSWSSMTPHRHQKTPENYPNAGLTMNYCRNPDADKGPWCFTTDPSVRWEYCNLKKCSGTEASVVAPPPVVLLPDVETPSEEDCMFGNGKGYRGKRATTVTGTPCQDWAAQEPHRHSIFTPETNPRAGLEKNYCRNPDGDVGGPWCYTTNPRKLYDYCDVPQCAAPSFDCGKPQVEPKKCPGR
Plasminogen, sequence (P00747 581-810 limits assumed): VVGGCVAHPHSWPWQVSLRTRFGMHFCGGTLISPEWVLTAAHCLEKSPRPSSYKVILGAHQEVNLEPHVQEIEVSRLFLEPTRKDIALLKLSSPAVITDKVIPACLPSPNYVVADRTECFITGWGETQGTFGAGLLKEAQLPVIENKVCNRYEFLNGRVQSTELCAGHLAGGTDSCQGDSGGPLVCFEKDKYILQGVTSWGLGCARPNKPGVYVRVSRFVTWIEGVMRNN

SMILES	IC50 (Plasma kallikrein) [µM]	Papp at 1 µM [1] [×10⁻⁶ cm/s]	IC50 (Coagulation factor X) [µM]	IC50 (Coagulation factor XII) [µM]	IC50 (Coagulation factor XI) [µM]	IC50 (Plasminogen) [µM]	IC50 [2] [µM]	half-life [3] [min]	IC50 (Prothrombin) [µM]	IC50 [4] [µM]	Cmax [5] [ng/mL]	bioavailability [6] [%]
Cc1cc(N)nc2c1CNC(=O)c1cnn(c1)Cc1ccc(Cn3cccn3)cc1OCC/C=C\CCO2	> 3000											
Cc1nc(N)cc2c1CNC(=O)c1cnn(c1)Cc1ccc(Cn3cccn3)cc1OCCC/C=C/CCO2	0.002	< 1	> 200	> 200	3.61	> 200	> 200	< 5	> 200	> 200		
Cc1nc(N)ccc1CNC(=O)c1cnn(Cc2ccc(Cn3cccn3)cc2)c1	0.0024	< 1	> 1000	> 1000	106	> 1000	578	48	> 1000	> 1000	25	6
Cc1nc(N)cc2c1CNC(=O)c1cnn(c1)Cc1ccc(Cn3cccn3)cc1OCC/C=C\CCO2	1.57											
Cc1nc(N)cc2c1CNC(=O)c1cnn(c1)Cc1ccc(Cn3cccn3)cc1OCC/C=C/CCO2	1.21											
Cc1nc(N)cc2c1CNC(=O)c1cnn(c1)Cc1ccc(Cn3cccn3)cc1OCCCCCCO2	8.31											
Cc1nc(N)cc2c1CNC(=O)c1cnn(c1)Cc1ccc(Cn3cccn3)cc1OCCC/C=C\CCO2	0.0423	< 1	> 200	> 200	40.9	> 200	> 200	< 5	> 200	> 200		
Cc1nc(N)cc2c1CNC(=O)c1cnn(c1)Cc1ccc(Cn3cccn3)cc1OCCCC=CCCO2 (mixture of isomers)	0.0048		> 200	> 200	11.7	21.4	> 200	< 5	> 200	> 200		
Cc1cc(N)nc2c1CNC(=O)c1cnn(c1)Cc1ccc(Cn3cccn3)cc1OCC/C=C/CCO2	53.2											
Cc1nc(N)cc2c1CNC(=O)c1cnn(c1)Cc1ccc(Cn3cccn3)cc1OCC/C=C/CCCO2	0.153	< 1	> 200	> 200	12.7	9.97	> 200	< 5	> 200	> 200		
